This is an account of results in patent publication US9956293B2, “Targeted therapeutics” (Madrigal Pharmaceuticals, Inc., priority 2014, dated 2018).

Bounds are passed on as bounds.

Series [1] is described as follows: Artificial membrane permeability assay (PAMPA) (Example 36). To be noted: incubation 5 h, the 55th table. It counts as in vitro ADME.
Method: In order to test the ability SDC-TRAP molecules of the invention to enter cells, an artificial membrane permeability assay (“PAMPA”) was used. […] LC/MS was used in conjunction with PAMPA assays to determine the ability of the SDC-TRAP molecules of the invention to permeate cells.
Pre-coated PAMPA plates were warmed to room temperature for at least 30 minutes prior to adding assay components.
Stock solutions were prepared with the SDC-TRAP molecules to be tested. In order to make a working solution, either 50 μL of 100 μM Stock in DMSO+950 μL of PBS or 50 μL of 200 μM stock was added to 96 deep well plate, resulting in a 5 μM final concentration or a 10 μM final concentration, respectively. 300 μL of the working solution containing each compound to be tested was added to the appropriate well of a donor PAMPA plate. 200 μL of PBS was added into the corresponding wells of an acceptor PAMPA plates.
The acceptor plate was lowered onto the donor plate and allowed to incubate for five hours. After five hours, a 50 μL aliquot was removed from each well of each plate and added into a new 96 deep-well plate.
100 μL of methanol containing an internal standard was added to each aliquot and analyzed by LC/MS. The internal standard was 150 ng/ml SDC-TRAP-0002.
In order to calculate the permeability for each SDC-TRAP molecule and the control molecules, the following formula was used:
Series [2] relates to HER2. The series can be described thus: HER2 degradation assay with BT-474 cell line (Example 12, FACS). It counts as cell-based. Conditions: Homo sapiens.
Series [3] concerns HER2. The series can be described thus: HER2 degradation in BT-474 cells (Example 3, Western blot / in-cell imaging). It counts as cell-based, human. To be noted: Homo sapiens; BT-474 cells; read-out: HER2 (IC50).
Method: BT-474 cells are plated in the interior 60 wells of a 96 well black clear bottom plate (20,000 cells/well) in DMEM medium, with DMEM media in the surrounding 36 wells, and incubated at 37° C. with 5% CO2 overnight. On the second day, concentration response curve source plates are produced (10 point, 3-fold dilution of compounds in DMSO) followed by a 1:30 dilution in an intermediate dilution plate containing DMEM. Compound is transferred from the intermediate plate to the cell plate at a dilution of 1:10.
Cells are then fixed in 4% phosphate-buffered paraformaldehyde for 30 minutes at room temperature and then permeabilized by washing five times with 0.1% Triton X-100 in PBS for 5 minutes at room temperature on a shaker. […] Cells are washed 5 times with 0.1% Tween-20 in PBS for 5 minutes at room temperature on a shaker and imaged on a LI-COR Odyssey imaging station. The raw data is normalized to DRAQ5 and the HER2 EC50 is calculated using XLfit™.
The mark [4] stands for this setting: BT-474, SDC-TRAPs of the 43rd table.

The compound `CC(C)c1cc(-c2nnc(O)n2-c2ccc3c(ccn3CCNC(=O)CCCC[C@@H]3SCC4NC(=O)NC43)c2)c(O)cc1O` (stereo in doubt) [SDC-TRAP-0233, N-(2-(5-(3-(2,4-dihydroxy-5-isopropylphenyl)-5-hydroxy-4H-1,2,4-triazol-4-yl)-1H-indol-1-yl)ethyl)-5-((3 aS,4S,6aR)-2-oxohexahydro-1H-thieno[3,4-d]imidazol-4-yl)pentanamide] gave a Papp at 5 h in series [1] of 0.021 ×10⁻⁶ cm/s. With `CCc1c2c(nc3ccc(OCC(=O)NCCn4ccc5cc(-n6c(O)nnc6-c6cc(C(C)C)c(O)cc6O)ccc54)cc13)-c1cc3c(c(=O)n1C2)COC(=O)C3(O)CC` (stereo not shown) [SDC-TRAP-0023, 2-((4,11-diethyl-4-hydroxy-3,14-dioxo-3,4,12,14-tetrahydro-1H-pyrano[3′,4′:6,7]indolizino[1,2b]quinolin-9-yl)oxy)-N-(2-(5-(3-(2,4-dihydroxy-5-isopropylphenyl)-5-hydroxy-4H-1,2,4-triazol-4-yl)-1H-indol-1-yl)ethyl)acetamide], the IC50 in the series on HER2 [2] (setting [4]) and with HER2 [3] was 4.3 µM throughout. For the compound `CC(C)c1cc(-c2nnc(O)n2-c2ccc3c(ccn3CCOC(=O)Nc3nc(=O)[nH]cc3F)c2)c(O)cc1O` [SDC-TRAP-0025, 2-(5-(3-(2,4-dihydroxy-5-isopropylphenyl)-5-hydroxy-4H-1,2,4-triazol-4-yl)-1H-indol-1-yl)ethyl (5-fluoro-2-oxo-1,2-dihydropyrimidin-4-yl) carbamate], the IC50 in the series on HER2 [2] (BT-474, SDC-TRAPs of the 52nd table) is 0.403 µM; in the series on HER2 [3] it was 0.395 µM. In the case of `CCc1c2c(nc3ccc(OCC(=O)N(C)CCn4ccc5cc(-n6c(O)nnc6-c6cc(C(C)C)c(O)cc6O)ccc54)cc13)-c1cc3c(c(=O)n1C2)COC(=O)C3(O)CC` (stereo not shown) [SDC-TRAP-0027, 2-((4,11-diethyl-4-hydroxy-3,14-dioxo-3,4,12,14-tetrahydro-1H-pyrano[3′,4′:6,7]indolizino[1,2-b]quinolin-9-yl)oxy)-N-(2-(5-(3-(2,4-dihydroxy-5-isopropylphenyl)-5-hydroxy-4H-1,2,4-triazol-4-yl)-1H-indol-1-yl)ethyl)-N-methylacetamide], the IC50 with HER2 [2] (setting [4]) and in the series on HER2 [3] was over 5 µM each time. `CC(C)c1cc(-c2nnc(O)n2-c2ccc3c(ccn3CCOCCN(C)C(=O)CCC(=O)Nc3cccc4c3CN(C3CCC(=O)NC3=O)C4=O)c2)c(O)cc1O` (stereo not shown) [SDC-TRAP-0033, N1-(2-(2-(5-(3-(2,4-dihydroxy-5-isopropylphenyl)-5-hydroxy-4H-1,2,4-triazol-4-yl)-1H-indol-1-yl)ethoxy)ethyl)-N4-(2-(2,6-dioxopiperidin-3-yl)-1-oxoisoindolin-4-yl)-N1-methylsuccinamide]: the IC50 in the series with HER2 [2] (BT-474 cells) and in the series on HER2 [3] was over 5 µM throughout. Regarding `CC(C)c1cc(-c2nnc(O)n2-c2ccc(CN3CCN(C(=O)CCCC(=O)Nc4cccc5c4CN(C4CCC(=O)NC4=O)C5=O)CC3)cc2)c(O)cc1O` (stereo not shown) [SDC-TRAP-0041, 5-(4-(4-(3-(2,4-dihydroxy-5-isopropylphenyl)-5-hydroxy-4H-1,2,4-triazol-4-yl)benzyl)piperazin-1-yl)-N-(2-(2,6-dioxopiperidin-3-yl)-1-oxoisoindolin-4-yl)-5-oxopentanamide], the IC50 with HER2 [2] (BT-474 cells) was over 10 µM; with HER2 [3], over 5 µM. For `CC(C)c1cc(-c2nnc(O)n2-c2ccc3c(ccn3CCNC(=O)CCCCCNC(=O)CCCC[C@H]3SC[C@H]4NC(=O)N[C@H]43)c2)c(O)cc1O` [SDC-TRAP-0234, N-(2-(5-(3-(2,4-dihydroxy-5-isopropylphenyl)-5-hydroxy-4H-1,2,4-triazol-4-yl)-1H-indol-1-yl)ethyl)-6-(5-((3aR,4R,6aS)-2-oxohexahydro-1H-thieno[3,4-d]imidazol-4-yl)pentanamido)hexanamide], in series [1], the “Mass Retention” value amounted to 9.56% and the Papp at 5 h came out at 0.0123 ×10⁻⁶ cm/s.
